Measured values published in paper PMC3041857 (Journal of medicinal chemistry, 2011).

Tests used:
[1] = tested on: PrP^Sc load in ScN2a-cl3 cells; format: cell-based, murine
[2] = mouse, in vivo

Row | Compound | Antiprion activity (in words) [1] | further results
1 | [4-(3,4-dimethoxyphenyl)-thiazol-2-yl]-pyridin-3-yl-amine [Compound 7] |  | EC50 ([1]; read-out: ScN2a-cl3 EC50): 1.22 µM
2 | Cc1ccc(Nc2nc(C)cs2)nc1 [Compound 29, (5-Methylpyridin-2-yl)-(4-methylthiazol-2-yl)-amine] | inactive | 
3 | CNc1nc(-c2ccc(OC)c(OC)c2)cs1 [Compound 5, 4-(3,4-dimethoxyphenyl)-N-methyl-1,3-thiazol-2-amine] | without significant activity | 
4 | FC(F)(F)Oc1ccc(-c2csc(Nc3cc4ccccc4cn3)n2)cc1 [Compound 31, Isoquinolin-3-yl-[4-(4-trifluoromethoxyphenyl)-thiazol-2-yl]-amine] | inactive | 
5 | COc1ccc(-c2csc(Nc3cccc(C)n3)n2)cc1OC [Compound 4, [4-(3,4-dimethoxyphenyl)-thiazol-2-yl]-(6-methylpyridin-2-yl)-amine] | equipotent to 3 | 
6 | Cc1ccc(Nc2nc(-c3cc(-c4ccccc4)no3)cs2)nc1 [Compound 27, (5-Methylpyridin-2-yl)-[4-(3-phenylisoxazol-5-yl)-thiazol-2-yl]-amine] |  | Mean brain concentration in excess of in vitro EC50 ([2]; FVB): ≤ 25 fold; Brain versus plasma concentration [2]: generally exceeded those in plasma
7 | Cc1csc(Nc2cc3ccccc3cn2)n1 [Compound 36, Isoquinolin-3-yl-(4-methylthiazol-2-yl)-amine] | inactive | 
